Source: patent US20160205934A1 (Rohm and Haas Company, priority 2013, published 2016)
Like-named read-outs stand apart in the source and are kept apart here.

What was measured:
Chlorella sp. ATCC 7516 = assay: Algal efficacy testing of dry paint films (modified ASTM 5589, 6-well plates); format: cell-based; conditions: 4 weeks; for inhibition at 1000 ppm: total conc 1000 ppm; for Total conc: total biocide conc in paint chosen as minimum inhibitory concentration (pass level 75% inhibition), or maximum tested where pass not reached
Method: (§1) The at least one phenylurea herbicide, (diuron, chlorotoluron, and/or isoproturon) was post added, as 33% active slurries, to a white, acrylic/silicone based outdoor paint free of biocides to give a total active ingredient concentration of 10000 and 1000 ppm respectively. These paints were then diluted with an antimicrobial free acrylic/silicone based paint and mixed to prepare targeted concentrations of antimicrobial compounds for the testing. The total biocides concentrations tested were 125, 250, 500, 1000, 2000 and 5000 ppm. After biocides addition or dilution, the paints were mixed 90 seconds with the horse power shaker (AXEL 75M3372/Agitateur SO-10MI) until uniformity was achieved. Paints containing different antimicrobial compounds at the same levels were mixed together in order to obtain the desired ratio of antimicrobial compounds. After one day, the paints were applied to Schleicher & Schuell filter paper at 280 μm wet film thickness and dried for 3 days at room temperature avoiding direct exposure to sunlight. Square discs (1.6 cm×1.6 cm) were cut out from each panel and were used as the substrate for algal efficacy tests. This sample size allowed for an agar border when the sample disc was placed into the well of the test plate.
(§2) Algal efficacy was tested according to modified ASTM 5589 which is a standard accelerated test method for determining resistance of various coatings (including paints) to algal defacement. To accommodate for high-throughput screening, this method was scaled down from petri dishes to 6-well plates. Bold Modified Basal Freshwater Nutrient Solution was used as growth medium. A single coated filter paper coupon was placed with a pair of sterile forceps at the center of the agar plug (on top) with the painted surface facing upwards. Algal inoculums were prepared by mixing equal concentrations (1×10^6 cfu/ml) and equal volumes of exponentially growing algae cultures.
(§3) Each well that contains a tested coupon was inoculated with 1750 μl of algal suspensions (1×10^6 cfu/ml) making sure that the whole surface (paint film as well as the agar surrounding it) was evenly covered. The plates were incubated at room temp (21° C.-25° C.) with cyclic exposure to light and dark phases, for a period of four weeks.
(§4) At the end of the four week incubation period, the samples were scored for percent inhibition regarding visible algal growth compared to the blank sample (0% inhibition).
(§5) The minimal targeted inhibition was set at 75%, meaning a coupon with at least 75% algal growth inhibition was considered as a pass.

[1] = tested on: Stichococcus bacillaris SAG 379-1a / CCAP 379/1a; assay: as above; format: cell-based; conditions: for Total conc: total biocide conc in paint chosen as minimum inhibitory concentration (pass level 75% inhibition), or maximum tested where pass not reached
Method: as §1, §2, §3, §4, §5

[2] = 672 h, visible algal growth vs blank
[3] = Stichococcus bacillaris, 672 h, Stichococcus, total conc 500 ppm, 4 weeks, visible algal growth vs blank, read-out: % inhibition

Row | SMILES | inhibition at 1000 ppm (Chlorella sp. ATCC 7516; [2]) [%] | Total conc (Chlorella sp. ATCC 7516) [ppm] | inhibition at 500 ppm [1, 3] [%] | Total conc ([1]; Stichococcus, 4 weeks) [ppm] | inhibition at 500 ppm (Chlorella sp. ATCC 7516; 672 h, total conc 500 ppm, visible algal growth vs blank) [%] | inhibition at 500 ppm ([1]; Stichococcus bacillaris, 672 h) [%] | inhibition at 5000 ppm (Chlorella sp. ATCC 7516; 672 h, total conc 5000 ppm, visible algal growth vs blank) [%] | % inhibition (Chlorella sp. ATCC 7516; total conc 5000 ppm, visible algal growth vs blank) [%] | inhibition at 2000 ppm ([1]; Stichococcus bacillaris, 672 h) [%] | inhibition at 5000 ppm ([1]; Stichococcus bacillaris, 672 h) [%]
1 | CC(C)c1ccc(NC(=O)N(C)C)cc1 [Isoproturon, isoproturon] | 100 | 1000 | 75 | 500 |  |  |  |  |  | 
2 | Cc1ccc(NC(=O)N(C)C)cc1Cl [Chlorotoluron, chlorotoluron] | 100 | 1000 | 75 | 500 |  |  |  |  |  | 
3 | CN(C)C(=O)Nc1ccc(Cl)c(Cl)c1 [Diuron, diuron] |  | 500 |  | 500 | 90 | 95 |  |  |  | 
4 | O=c1[nH]c2c(c(=O)n1C1CCCCC1)CCC2 [Lenacil, 3-cyclohexyl-1,5,6,7-tetrahydrocyclopentapyrimidine-2,4(3H)-dione] |  | 5000 |  |  |  |  | 45 | 50 | 80 | 65
